According to patent US12287332B2, “Test cartridges” (First Light Diagnostics, Inc., priority 2018, dated 2025):
Values after ≈ are worked out from the molar mass of the structure shown.

Key:
Type in all cases: cell-based
[1] = test system: K. pneumoniae strain in clinical urine sample BIUR0084; experiment: Automated MultiPath AST cartridge on clinical urine, Example 8; settings: 4 h growth, fold growth value of 2, matched CLSI broth microdilution
K. pneumoniae CDC0126 = experiment: Novel rapid AST (4 h differential growth, FISH cell counting) in urine matrix, Example 7; settings: Klebsiella pneumoniae, 4 h growth, fold-growth threshold 20, read-out: MIC generated by novel rapid AST method
Procedure: Bacterial cell preparation: 50 bacterial strains with known resistance profiles were collected from either the ATCC or from the CDC antibiotic resistance bank (AR bank) and are shown in Table A. Bacterial cultures for each of these were obtained by inoculating Trypticase Soy Broth (TSB, Hardy Diagnostics cat. U65) with 3 to 5 colonies from fresh tryptic soy agar plates (TSA, BD cat. 221185) and growing for 1.5 to 3 hours at 35° C. to achieve log-phase growth. Using optical density at 600 nm to estimate cell concentration, each culture was diluted to approximately 5×10^6 colony-forming units (CFU)/mL in cation-adjusted Mueller Hinton II (MHBII, Teknova cat. M5860).
A reaction mixture was prepared consisting of 30 μL processed urine, 10 μL of the 5×10^6 CFU/mL bacterial dilution, 60 μL MHBII (1× final concentration in 100 μL) and the appropriate species-specific Alexa647N-labeled DNA oligonucleotide FISH probe and its associated unlabeled DNA helper probes for the target bacterial species. […] 10 μL of the prepared magnetic particle mixture was then added to the well. […]
Four Hour Growth: While the time zero cell quantification was occurring, 12 μL of prepared bacterial culture, 36 uL pooled human urine processed as done for the assay time zero, 60 uL of 2×MHB II (Teknova, cat. #M5860) and 2 uL water was added to each well of the prepared antibiotic plate. […]

E. coli ATCC 25922 = experiment: Novel 4.5-hour AST in presence of beta-lactamase producing K. pneumoniae, Example 11; settings: Escherichia coli, ATCC25922, 4.5 h; sensitive E. coli strain; increasing amounts of beta-lactamase producing K. pneumoniae; read-out: MIC, novel 4.5-hour AST method
Procedure: Experimental procedure. Preparation of Antibiotic Plates: Antibiotic plates prepared as described in Impact of Non-Sterile Sample on Target MIC example.
E. coli was diluted to 5×10^5 CFU/mL (CLSI standard concentration) while K. pneumoniae was diluted to various inoculum (ranging from 1×10^6 and 5×10^8 CFU/mL).
30 μL of each processed urine was added to 70 μL of 1× cation-adjusted Mueller-Hinton Broth (MHBII) containing species-specific Alexa647N-labeled DNA oligonucleotide FISH probes and unlabeled DNA helper probes. […] 10 μL of the prepared magnetic particle mixture was then added to the well.
Four-Hour Growth: The E. coli was tested in the presence of varying inoculum of K. pneumoniae-OXA for susceptibility against 2 antimicrobial agents: Imipenem and Meropenem.
100 μL of each well of the incubated sample-antibiotic plate was transferred to a corresponding well of a dehydrated buffer plate and combined with FISH probes, helper probes, magnetic particles, and focus particles in the same manner as described above for assay time zero.
All data was then compared to CLSI standard BMD.

Molecule	sensitive/resistant call by MultiPath [1]	other results
Cc1nnc(SCC2=C(C(=O)O)N3C(=O)[C@@H](NC(=O)Cn4cnnn4)[C@H]3SC2)s1 [Cefazolin]	resistant	
O=C(O)c1cn(C2CC2)c2cc(N3CCNCC3)c(F)cc2c1=O [Ciprofloxacin]		MIC (K. pneumoniae CDC0126): 0.25 µg/mL (≈ 0.754 µM)
C[C@@H](O)[C@H]1C(=O)N2C(C(=O)O)=C(SCCN=CN)C[C@H]12 [Imipenem]		MIC (E. coli ATCC 25922): < 1 µg/mL
Trimethoprim/Sulfamethoxazole	resistant	
